Data on five molecules can be found in patent publication US11629164B2, “Gemcitabine prodrugs” (NuCana plc, priority 2014, dated 2023).

≈ marks a conversion by molar mass, not a printed value. Read-outs that look alike come from different tables or passages of the source.

A short description of data set [1]: aqueous solubility of NUC-1031 (background statement). To be noted: regardless of salt content or pH. The format is physicochemical.
Data set [2] is described as follows: solubility in pharmaceutically acceptable solvent systems, HPLC assay of filtrate. In kind it is physicochemical. How it is done:
The solubilities of NUC-1031 and its diastereoisomers were determined in a range of pharmaceutically acceptable solvent systems. The protocol adopted was as follows:
A small volume, 1-2 mL, of each solvent system was prepared and a weight of the compound in question was added. The solutions were stirred for approximately 4 hours and then […] membrane filtered. The concentration of the compound in question in the filtrate was then determined by HPLC assay.

A short description of data set [3]: metabolic stability in pooled human cryopreserved hepatocyte suspension, HPLC-MS/MS. In kind it is in vitro ADME. The settings on record: both sexes, human, hepatocytes. The procedure: (§1) The clearance and bioavailability of most medicines are strongly influenced by their first-pass metabolism in the liver. It is possible to estimate the relative hepatic “metabolic stability” in vitro by incubating compounds with cryopreserved hepatocytes and determining the initial vs. the final amount of the test compound in the incubation mixtures.
(§2) The following procedure is an HPLC-MS/MS assay using pooled human cryopreserved hepatocyte suspension.
(§3) Human hepatocytes: mixed gender and pool of 10
(§4) Final cell density: 1 million (10^6) viable cells/mL
(§5) Pooled cryopreserved hepatocytes are thawed, washed, and resuspended in Krebs-Heinslet buffer (pH 7.3). The reaction is initiated by adding the test compound (1 μM final concentration) into cell suspension and incubated in a final volume of 100 μL on a flat-bottom 96-well plate for 0 minute and 120 minutes, respectively, at 37° C./5% CO2. The reaction is stopped by adding 100 μL of acetonitrile into the incubation mixture. Samples are then mixed gently and briefly on a plate shaker, transferred completely to a 0.8 mL V-bottom 96-well plate, and centrifuged at 2550×g for 15 minutes at room temperature. Each supernatant (150 μL) is transferred to a clean cluster tube, followed by HPLC-MS/MS analysis on a Thermo Electron triple-quadrupole system.
(§6) This assay was modified for half-life determination. In this case, the sampling time points are 0, 30, 60, 90, and 120 minutes.
(§7) Four reference compounds (1 μM) were tested simultaneously with the test compounds.
(§8) Samples are analyzed via (RP)HPLC-MS/MS using selected reaction monitoring (SRM). The HPLC conditions consist of an HP1100 binary pump with autosampler, a C-12 mixed-mode, 2×20 mm column, and a gradient.
(§9) Peak areas corresponding to the test compound are recorded by HPLC-MS/MS. The metabolic stability, expressed as percent of the test compound remaining, is calculated by comparing the peak areas of the test compound at 2 hours to time zero. In case of half-life determination, the half-life is estimated from the slope of the initial linear range of the logarithmic curve of the test compound remaining (%) vs. time, assuming first order kinetics.

For data set [4], the system named is pooled human cryopreserved hepatocytes. Described as above. In kind it is in vitro ADME. To be noted: reference compounds, 1 μM. How it is done:
as §1, §2, §3, §4, §5, §6, §7, §8, §9

Setting [5] is: 10% mixtures of polar organic solvents in water.
Setting [6] is: 50% PEG400 by volume in water, aqueous with cosolvent or surfactant or cyclodextrin, thermodynamic from solid, PEG400 (50%) by volume in water, read-out: Solubility.
Where [7] appears, read: 50% ethanol by volume in water, aqueous with cosolvent or surfactant or cyclodextrin, thermodynamic from solid, ETHANOL (50%) by volume in water, read-out: Solubility.
The mark [8] stands for this setting: 50% propylene glycol by volume in water, aqueous with cosolvent or surfactant or cyclodextrin, thermodynamic from solid, PROPYLENE GLYCOL (50%) by volume in water, read-out: Solubility.
Setting [9] is: mixtures of polar organic solvents with water.

As to `C[C@H](NP(=O)(OC[C@H]1O[C@@H](n2ccc(N)nc2=O)C(F)(F)C1O)Oc1ccccc1)C(=O)OCc1ccccc1` (stereo partly shown) [NUC-1031], the “solubility in water” value in data set [1] is given as “essentially insoluble in water”. Besides, the solubility was above 217000 µg/mL in data set [2] (organic solvent or mixture, thermodynamic from solid, solvent DMSO, read-out: Assay (solubility)); above 207000 µg/mL in data set [2] (organic solvent or mixture, thermodynamic from solid, solvent NMP, read-out: Assay (solubility)); 385000 µg/mL (≈ 663 mM) in data set [2] (organic solvent or mixture, thermodynamic from solid, solvent PEG 400, read-out: Assay (solubility)); 371000 µg/mL (≈ 639 mM) in data set [2] (organic solvent or mixture, thermodynamic from solid, solvent Propylene glycol, read-out: Assay (solubility)). Moreover, the Appearance entry in data set [2] (solvent DMSO) is given as “Clear solution”; in data set [2] (solvent Ethanol), “Solubilised quickly, after 30”; in data set [2] (solvent Glycerol), “API evident”; in data set [2] (solvent NMP), “Clear solution”; in data set [2] (solvent PEG 400), “Precipitation evident after 120”; in data set [2] (solvent Propylene glycol), “Precipitation evident after 30”. The half-life at 1 μM in data set [3] (pH 7.3, Half-Life 1st) is 1.22 h; in data set [3] (pH 7.3, Half-Life 2nd), 1.21 h; in data set [3] (pH 7.3, Half-Life 3rd), 1.37 h.

In the case of `C[C@H](N[P@](=O)(OC[C@H]1O[C@@H](n2ccc(N)nc2=O)C(F)(F)C1O)Oc1ccccc1)C(=O)OCc1ccccc1` (stereo partly drawn) [compound 3, 2′-Deoxy-2′,2′-difluoro-D-cytidine-5′-O-[phenyl(benzyloxy-L-alaninyl)]-(S)-phosphate], the solubility is 460 µg/mL (≈ 0.792 mM) in data set [2] (10% PEG400 by volume in water, aqueous with cosolvent or surfactant or cyclodextrin, thermodynamic from solid, PEG400 (10%) by volume in water, read-out: Solubility); 270 µg/mL (≈ 0.465 mM) in data set [2] (10% ethanol by volume in water, aqueous with cosolvent or surfactant or cyclodextrin, thermodynamic from solid, ETHANOL (10%) by volume in water, read-out: Solubility); “significantly improved solubility” in data set [2] (setting [5]); 230 µg/mL (≈ 0.396 mM) in data set [2] (10% propylene glycol by volume in water, aqueous with cosolvent or surfactant or cyclodextrin, thermodynamic from solid, PROPYLENE GLYCOL (10%) by volume in water, read-out: Solubility); 32100 µg/mL (≈ 55.4 mM) in data set [2] (setting [6]); 34800 µg/mL (≈ 59.9 mM) in data set [2] (setting [7]). The values for the solubility in data set [2] (setting [8]) and in data set [2] (setting [9]) were 11300 µg/mL (≈ 19.4 mM) and “sufficient solubility”, respectively. For the same molecule, the “difference in solubility between (S)-epimer and (R)-epimer” value in data set [2] (in a number of the solvent mixtures tested) is reported as “over 100 fold”. Also, the half-life at 1 μM in data set [3] (pH 7.3, Half-Life 1st) turned out to be 0.675 h; in data set [3] (pH 7.3, Half-Life 2nd) it was 0.608 h; in data set [3] (pH 7.3, Half-Life 3rd), 0.583 h.

As to `C[C@H](N[P@@](=O)(OC[C@H]1O[C@@H](n2ccc(N)nc2=O)C(F)(F)[C@@H]1O)Oc1ccccc1)C(=O)OCc1ccccc1` [compound 4, 2′-deoxy-2′,2′-difluoro-D-cytidine-5′-O-[phenyl(benzyloxy-L-alaninyl)]-(R)-phosphate], the “solubility” value in data set [2] (setting [5]) is “substantially insoluble”; in data set [2] (setting [6]) it was 270 µg/mL (≈ 0.465 mM); in data set [2] (setting [7]), 690 µg/mL (≈ 1.19 mM); in data set [2] (setting [8]), 110 µg/mL (≈ 0.189 mM); in data set [2] (setting [9]) it was “substantially insoluble”. For the same molecule, the half-life at 1 μM in data set [3] (pH 7.3, Half-Life 1st) was 7.86 h; in data set [3] (pH 7.3, Half-Life 2nd) it was above 2 h; in data set [3] (pH 7.3, Half-Life 3rd), above 2 h; in data set [3] (pH 7.3, Half-Life Mean), above 2 h.

Take `CCN(CC)CCN1C(=O)CN=C(c2ccccc2F)c2cc(Cl)ccc21` [flurazepam, reference compound]: the “stability with human hepatocytes” value in data set [4] is “relatively unstable”.

In the case of `C=CCN1CC[C@]23c4c5ccc(O)c4O[C@H]2C(=O)CC[C@@]3(O)[C@H]1C5` [naloxone, reference compound], the “stability with human hepatocytes” value in data set [4] is given as “relatively unstable”.

Broadly, the solubility is the dissolved amount per volume that the medium holds. As usually defined, the half-life is the time needed for the level to fall by half in the phase considered.
